From patent EP3177293B1, “METHOD OF TREATING SKIN CONDITIONS” (Astrazeneca AB, priority 2014, dated 2015)
Where two headings read alike, the source gives them in different places.

Columns and labels:
[1] = molecular target: T1, mouse DGAT1 (Mus musculus, UniProt Q9Z2A7); experiment: in vitro recombinant DGAT1 enzyme assay (mouse); assay type: biochemical
T1 sequence (Q9Z2A7 1-498): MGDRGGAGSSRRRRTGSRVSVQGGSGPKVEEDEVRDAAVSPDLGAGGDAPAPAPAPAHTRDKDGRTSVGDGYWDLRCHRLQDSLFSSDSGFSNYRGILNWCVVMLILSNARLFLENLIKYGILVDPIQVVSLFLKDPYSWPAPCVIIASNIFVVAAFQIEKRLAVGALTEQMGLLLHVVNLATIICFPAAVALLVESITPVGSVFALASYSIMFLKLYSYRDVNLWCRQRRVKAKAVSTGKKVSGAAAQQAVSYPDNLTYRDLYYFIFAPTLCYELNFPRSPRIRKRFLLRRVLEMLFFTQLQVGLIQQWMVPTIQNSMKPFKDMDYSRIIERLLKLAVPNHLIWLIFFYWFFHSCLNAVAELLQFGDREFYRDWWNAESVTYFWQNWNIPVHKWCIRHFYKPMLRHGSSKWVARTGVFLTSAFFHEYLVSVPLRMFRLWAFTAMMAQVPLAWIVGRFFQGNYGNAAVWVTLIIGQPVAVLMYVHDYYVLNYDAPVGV

[2] = molecular target: T2, dog DGAT1 (Canis lupus familiaris, UniProt A0A8I3NFS1); experiment: in vitro recombinant DGAT1 enzyme assay (dog); assay type: biochemical
T2 sequence (A0A8I3NFS1 67-492): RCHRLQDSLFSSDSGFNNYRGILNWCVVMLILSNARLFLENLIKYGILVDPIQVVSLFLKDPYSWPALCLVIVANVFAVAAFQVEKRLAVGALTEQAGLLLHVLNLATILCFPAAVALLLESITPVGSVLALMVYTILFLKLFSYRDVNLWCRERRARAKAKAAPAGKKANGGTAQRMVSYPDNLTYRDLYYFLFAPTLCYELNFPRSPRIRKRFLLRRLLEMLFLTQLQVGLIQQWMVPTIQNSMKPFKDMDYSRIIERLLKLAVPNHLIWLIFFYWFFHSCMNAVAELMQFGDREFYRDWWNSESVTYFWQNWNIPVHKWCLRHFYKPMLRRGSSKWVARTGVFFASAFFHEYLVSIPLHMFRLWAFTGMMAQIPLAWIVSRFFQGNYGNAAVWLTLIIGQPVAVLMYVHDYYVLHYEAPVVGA

[3] = molecular target: T3, human DGAT1 (Homo sapiens, UniProt O75907); experiment: in vitro recombinant DGAT1 enzyme assay (human); assay type: biochemical
T3 sequence (O75907 1-488): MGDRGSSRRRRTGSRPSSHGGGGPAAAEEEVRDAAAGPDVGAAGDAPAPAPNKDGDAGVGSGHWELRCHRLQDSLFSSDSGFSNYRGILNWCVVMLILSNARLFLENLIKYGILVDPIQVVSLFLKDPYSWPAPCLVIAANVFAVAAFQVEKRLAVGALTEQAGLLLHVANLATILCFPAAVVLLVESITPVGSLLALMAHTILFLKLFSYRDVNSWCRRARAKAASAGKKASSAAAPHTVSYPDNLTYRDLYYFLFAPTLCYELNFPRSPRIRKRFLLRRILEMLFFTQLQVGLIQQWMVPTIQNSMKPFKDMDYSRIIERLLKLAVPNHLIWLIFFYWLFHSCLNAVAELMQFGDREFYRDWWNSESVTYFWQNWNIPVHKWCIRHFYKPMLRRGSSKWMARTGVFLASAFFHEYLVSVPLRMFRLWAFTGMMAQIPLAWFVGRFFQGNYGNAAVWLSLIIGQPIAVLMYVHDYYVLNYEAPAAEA

[4] = molecular target: T4, human ACAT2 (Homo sapiens, UniProt O75908); experiment: ACAT2 enzyme inhibition; assay type: biochemical
T4 sequence (O75908 1-522): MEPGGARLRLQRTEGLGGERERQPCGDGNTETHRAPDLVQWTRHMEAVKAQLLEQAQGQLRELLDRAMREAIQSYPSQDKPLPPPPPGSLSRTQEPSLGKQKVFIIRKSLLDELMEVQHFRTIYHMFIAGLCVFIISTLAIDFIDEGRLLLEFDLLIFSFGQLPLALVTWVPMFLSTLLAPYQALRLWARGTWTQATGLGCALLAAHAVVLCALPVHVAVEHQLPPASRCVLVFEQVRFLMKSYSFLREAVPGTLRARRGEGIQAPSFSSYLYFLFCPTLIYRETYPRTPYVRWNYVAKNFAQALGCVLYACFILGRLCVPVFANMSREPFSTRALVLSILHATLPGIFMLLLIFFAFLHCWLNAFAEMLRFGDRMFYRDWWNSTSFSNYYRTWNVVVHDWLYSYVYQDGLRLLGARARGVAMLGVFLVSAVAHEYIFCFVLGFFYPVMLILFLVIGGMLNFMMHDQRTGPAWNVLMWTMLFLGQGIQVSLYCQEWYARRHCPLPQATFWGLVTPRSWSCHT

[5] = molecular target: T5, human DGAT2 (Homo sapiens, UniProt Q96PD7); experiment: DGAT2 activity; assay type: biochemical
T5 sequence (Q96PD7 1-388): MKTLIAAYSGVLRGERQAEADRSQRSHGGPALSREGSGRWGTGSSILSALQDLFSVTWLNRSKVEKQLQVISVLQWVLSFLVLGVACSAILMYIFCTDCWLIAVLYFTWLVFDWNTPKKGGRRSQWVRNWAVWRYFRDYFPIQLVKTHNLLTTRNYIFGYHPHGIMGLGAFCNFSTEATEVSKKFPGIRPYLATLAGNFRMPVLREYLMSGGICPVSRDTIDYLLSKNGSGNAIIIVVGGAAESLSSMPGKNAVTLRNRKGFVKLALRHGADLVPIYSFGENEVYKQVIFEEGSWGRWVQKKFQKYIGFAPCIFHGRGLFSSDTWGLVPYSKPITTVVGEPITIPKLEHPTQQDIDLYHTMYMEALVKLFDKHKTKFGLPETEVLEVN

[6] = toxicokinetic analysis of plasma exposure in mice, oral dosing; assay type: in vivo, mice (Crl:CD-1(ICR)); conditions: for Cmax as multiple of mouse microsomal DGAT1 enzyme IC50 / Cmin as multiple of DGAT1 IC50: oral once daily
Source text: (§1) Doses and frequency of dosing were selected following consideration of species specific tolerability and pharmacokinetic parameters. Doses predicted to result in exposures which were likely to cause maximum DGAT1 inhibition without resulting in intolerability were chosen as the highest dose level.
The mice were killed by administration of halothane.

[7] = test system: sebaceous glands
Source text: Up to 32 (16 male and 16 female) mice (Crl:CD-1(ICR)) per dose group were obtained from the AstraZeneca breeding unit (Alderley Park, Macclesfield, UK). The animals, aged 7-8 weeks, were allowed to acclimatise for at least one week, were multiple-housed, sexes separately, up to 5/cage. Water from the site drinking water supply and RM1 (E) SQC pelleted diet supplied by Special Diets Services Ltd., England, was freely available. Nesting material (Tapvei Aspen Chips, Tapvei small aspen bricks, Finland, sizzle nests and paper shavings, and polycarbonate tunnels, Datesand,UK) was provided. Animals were terminated for scheduled necropsy on the day after the final dose. The mice were killed by administration of halothane.
(§2) For pharmacokinetic analysis, blood samples were collected into lithium heparin tubes from animals on either the first or penultimate day of the study. Plasma was separated by centrifugation at 4°C and stored for analysis at -20°C. […] Exposure data are presented as FDM (free drug concentration in blood plasma required to inhibit the microsomal DGAT1 enzyme by 50%) and are mean data for each dose level. […] At the end of each experiment, animals were terminally anaesthetised and representative samples of skin (mammary gland region for mice, abdominal region for dogs) were taken at necropsy, placed in 10% buffered formalin and processed for histopathological assessment. Conventional processing into wax and haematoxylin and eosin staining of sections preceded their light microscopic examination.
(§3) Light microscopic examination and histology scoring was performed by a certified pathologist and findings were peer reviewed by a second pathologist. Each section of skin contained from 15 - 25 hair follicles in different stages of differentiation with associated sebaceous glands that were cut in multiple planes. […] Therefore, assessment of sebaceous cell/gland atrophy was based on their appearances irrespective of the stage of differentiation of the associated hair follicle in all instances.

[8] = toxicokinetic analysis of plasma exposure in dogs, oral dosing; assay type: in vivo, beagle dogs
Source text: as §1

[9] = test system: sebaceous glands; remark: listed apart in the source
Description: Up to 8 (4 male and 4 female) beagle dogs per treatment group were obtained from the AstraZeneca breeding unit (Alderley Park, Macclesfield, UK). […] All animals were observed daily for clinical signs of toxicity. Body weight and food consumption was measured daily prior to dosing. Animals were single-penned, with access to an exercise area with others of the same sex and group, for the major part of each day. Animals had free access to water from the site drinking water supply. A set weight of SDS Dog-D3 (E) SQC, supplied by Special Diet Services Ltd, England, was provided daily, in the afternoon, access being allowed for up to approximately 2 hours. Toys (e.g., bones) were provided for additional environmental enhancement. Animals were terminated for scheduled necropsy on the day after the final dose. The dogs were killed by intravenous administration of sodium pentobarbitone and then exsanguinated.
as §2, §3

[10] = test system: skin; conditions: clinical trials of short duration (Denison et al. 2013); cited from earlier work
[11] = 1mg/kg/day dose group, 180 day study
[12] = 600 mg/kg/day dose group, 7 day study
[13] = mouse, 1 month and 6 month studies

## Cc1nc(C)c(-c2ccc([C@H]3CC[C@H](CC(=O)O)CC3)cc2)nc1C(N)=O [2-((1R,4R)-4-(4-(6-carbamoyl-3,5-dimethylpyrazin-2-yl)phenyl)cyclohexyl)acetic acid]
[1]
  IC50: ~100 nM
[2]
  IC50: ~60 nM
[3]
  IC50: ~80 nM
[4]
  IC50: > 35000 nM
[5]
  activity against human DGAT2: No activity
[6]; [11]
  Cmax as multiple of mouse microsomal DGAT1 enzyme IC50: 4 x IC50
  Cmin as multiple of DGAT1 IC50: 1 x IC50
[6]; [12]
  Cmax as multiple of mouse microsomal DGAT1 enzyme IC50: 1581 x IC50
  Cmin as multiple of DGAT1 IC50: 766 x IC50
[6]; male versus female mice
  sex difference in exposure: 1.5 - 3 x
[7]; Crl:CD-1(ICR), mouse, in vivo, 6 months
  exposure at Cmin at which additional skin findings occurred: ≥ 7 x FDM
[7]; male mouse, 300 mg/kg/day for 6 months
  skin photomicrograph appearance of sebaceous glands (Figure 5 B): substantial atrophy of sebaceous glands with much reduced sebum and mild hyperkeratosis
[7]; mice, 4 week drug-free period after 1 month of treatment
  reversibility of sebaceous gland atrophy: complete reversibility
[7]; mice, after 1 month (28 days) of dosing
  group mean severity of sebaceous gland atrophy: minimal to mild
[7]; mice, after 6 months (180 days) of dosing
  group mean severity of sebaceous gland atrophy: minimal to moderate
[7]; mice, high doses for up to 7 days
  sebaceous gland atrophy: absent
[7]; mouse
  duration of DGAT1 inhibition required for microscopical detection of sebaceous gland atrophy: more than 7 days
[7]; mouse, 300 mg/kg/day for 28 days
  skin photomicrograph appearance of sebaceous glands (Figure 1 B): severely atrophic sebaceous glands with substantially reduced sebum
[7]; mouse, 300 mg/kg/day for 28 days followed by drug free recovery period of 28 days
  skin photomicrograph appearance of sebaceous glands (Figure 1 C): normal appearance of sebum filled sebaceous glands
[7]; [13]
  exposure at Cmin with mild to moderate sebaceous gland atrophy: 46 x FDM
  exposure at Cmin with minimal to mild sebaceous gland atrophy: 7 - 40 x FDM
[7]; mouse, in vivo
  exposure at Cmax at which additional skin findings occurred: at least 50 x FDM
  histopathological findings in the skin: restricted to sebaceous gland atrophy only
  significant increase in inflammation in the skin: not seen
  skin findings associated with sebaceous gland atrophy: epidermal hyperplasia, occasional hair follicle atrophy, as well as in-life observation of hair-loss and skin lesions
  tolerability: well tolerated
[8]; 4 mg/kg/day dose group, 3 month study
  Cmax as multiple of dog microsomal DGAT1 enzyme IC50: 10 x IC50
[8]; 4 mg/kg/day dose group, 3 months study
  Cmin as multiple of DGAT1 IC50: 1 x IC50
[8]; 1000 mg/kg/day dose group, 7 day study
  Cmin as multiple of DGAT1 IC50: 54 x IC50
[8]; 1000 mg/kg/day dose group, 'in the same study' (3 month study as printed)
  Cmax as multiple of dog microsomal DGAT1 enzyme IC50: 292 x IC50
[9]; dog
  duration of DGAT1 inhibition required for microscopical detection of sebaceous gland atrophy: more than 7 days
  exposure at Cmin with mild to moderate sebaceous gland atrophy: > 36 x FDM
  exposure at Cmin with minimal to mild sebaceous gland atrophy: 7-54 x FDM
[9]; dog, 100 mg/kg/day for 6 months
  skin photomicrograph appearance of sebaceous glands (Figure 6 B): atrophic sebaceous glands which contain little sebum
[9]; dog, in vivo
  additional skin changes (occasional hair follicle atrophy, hair-loss and skin lesions): not observed
  hyperkeratosis of the epithelium covering the infundibula of hair follicles: minimal hyperkeratosis
  significant increase in inflammation in the skin: not seen
  tolerability: well tolerated
[9]; dogs dosed for up to 7 days
  sebaceous gland atrophy: absent
[9]; dogs, 4 week drug-free period after 3 months of dosing
  reversibility of sebaceous gland atrophy: complete reversibility
[9]; dogs, after 3 months (90 days) of dosing
  group mean severity of sebaceous gland atrophy: minimal to moderate
[9]; dogs, after 14 days of dosing
  group mean severity of sebaceous gland atrophy: minimal to mild
[9]; dogs, highest dose group after 6 months (180 days)
  group mean severity of sebaceous gland atrophy: moderate
[10]
  effects on the skin of healthy volunteers: no effects
